In patent publication US10364212B2 (F.I.S.—FABBRICA ITALIANA SINTETICI S.P.A., priority 2016, dated 2019):
Where “and” joins values, the source holds several entries; their conditions need not be identical. Equal values may be shown once. Entries after “also recorded” stand apart in the source; their conditions may differ.

Assays:
Assay type in all cases: physicochemical
[1] = Kinetic solubility study in water, HPLC area of Enclomiphene peak;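 for HPLC a/a: suspension in 24 mL Water and the filtered mother liquor analysed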;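 for average HPLC a/a: suspension in 24 mL Water and the filtered mother liquor analysed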
Experimental: (§1) The filtered solid was analyzed by XRPD.
These HPLC conditions were used to perform solubility analysis.

[2] = Kinetic solubility study at pH 4.5 (acetic acid/sodium acetate buffer), HPLC area
Experimental: as §1
Solubility at a slightly acid medium was determined at pH 4.5 buffer used was a mixture acetic acid/sodium acetate prepared according to USP specifications. […]

[3] = Hygroscopicity by DVS (Dynamic Vapour Sorption); conditions: for water uptake / moisture sorption: at 95% RH (0-95% RH); for hygroscopicity, comparison of batches 722 and 723: between 0 and 65% RH
Experimental: This is a gravimetric technique that measures how much water is absorbed or desorbed by a sample at different relative humidity (RH). At each RH, the sample mass must be allowed to reach gravimetric equilibrium (or surpassed time limit) before progressing to the next humidity level. Sorption and desorption isotherms will be performed at 25° C. over a range of 0-95% RH. The type of sorption isotherm is determined by the pore size and surface character of the material.

SMILES	average HPLC a/a ([1]; 0 min)	HPLC a/a ([1]; 0 min, replicate 1)	HPLC a/a ([1]; 0 min, replicate 2)	HPLC a/a ([1]; 0 min, replicate 3)	average HPLC a/a ([1]; 15 min)	HPLC a/a ([1]; 15 min, replicate 1)	HPLC a/a ([1]; 15 min, replicate 2)	HPLC a/a ([1]; 15 min, replicate 3)	average HPLC a/a ([1]; 45 min)	HPLC a/a ([1]; 45 min, replicate 1)	HPLC a/a ([1]; 45 min, replicate 2)	HPLC a/a ([1]; 45 min, replicate 3)	average HPLC a/a ([1]; 90 min)	HPLC a/a ([1]; 90 min, replicate 1)	HPLC a/a ([1]; 90 min, replicate 2)	HPLC a/a ([1]; 90 min, replicate 3)	average HPLC a/a ([1]; 180 min)	HPLC a/a ([1]; 180 min, replicate 1)	HPLC a/a ([1]; 180 min, replicate 2)	HPLC a/a ([1]; 180 min, replicate 3)	other results
CCN(CC)CCOc1ccc(/C(=C(/Cl)c2ccccc2)c2ccccc2)cc1.O=C(O)CC(O)(CC(=O)O)C(=O)O [Enclomiphene citrate having needle crystals] [Ethanamine, 2-[4-[(1E)-2-chloro-1,2-diphenylethenyl]phenoxy]-N,N-diethyl-, 2-hydroxy-1,2,3-propanetricarboxylate (1:1)]	0 a/a	0 a/a	0 a/a	0 a/a	5152 a/a	4099 a/a	6104 a/a	3273 a/a	4962 a/a	5206 a/a	5457 a/a	3225 a/a	5334 a/a	5085 a/a	5426 a/a	2988 a/a	4126 a/a	4120 a/a	5327 a/a	3208 a/a	solubility in water compared with Enclomiphene citrate having non-needle shaped crystal habit ([1]; listed as Enclomiphene citrate having needle shaped crystal habit): almost double; also recorded: almost two times; Average a/a ([2]; pH 4.5, 0 min): 0 a/a; HPLC a/a ([2]; pH 4.5, 0 min, replicate 1): 0 a/a; HPLC a/a ([2]; pH 4.5, 0 min, replicate 2): 0 a/a; Average a/a ([2]; pH 4.5, 15 min): 4135 a/a; HPLC a/a ([2]; pH 4.5, 15 min, replicate 1): 3941 a/a; HPLC a/a ([2]; pH 4.5, 15 min, replicate 2): 4330 a/a; Average a/a ([2]; pH 4.5, 45 min): 4024 a/a; HPLC a/a ([2]; pH 4.5, 45 min, replicate 1): 3978 a/a; HPLC a/a ([2]; pH 4.5, 45 min, replicate 2): 4070 a/a; Average a/a ([2]; pH 4.5, 90 min): 5109 a/a; HPLC a/a ([2]; pH 4.5, 90 min, replicate 1): 4889 a/a; HPLC a/a ([2]; pH 4.5, 90 min, replicate 2): 5329 a/a; Average a/a ([2]; pH 4.5, 180 min): 5079 a/a; HPLC a/a ([2]; pH 4.5, 180 min, replicate 1): 5098 a/a; HPLC a/a ([2]; pH 4.5, 180 min, replicate 2): 5060 a/a; solubility at pH 4.5 compared with Enclomiphene citrate having non-needle crystals ([2]; pH 4.5 buffer, listed as Enclomiphene citrate having needle shaped crystal habit): four times higher; water uptake / moisture sorption ([3]; DVS, 25° C., listed as batch 723): 2.33 % weight and 2.3 % weight; hygroscopicity, comparison of batches 722 and 723 ([3]; DVS): identical
CCN(CC)CCOc1ccc(/C(=C(/Cl)c2ccccc2)c2ccccc2)cc1.O=C(O)CC(O)(CC(=O)O)C(=O)O [Enclomiphene citrate having non-needle crystals] [Ethanamine, 2-[4-[(1E)-2-chloro-1,2-diphenylethenyl]phenoxy]-N,N-diethyl-, 2-hydroxy-1,2,3-propanetricarboxylate (1:1), reference compound]	0 a/a	0 a/a	0 a/a	0 a/a	2858 a/a	1819 a/a	3483 a/a	3273 a/a	3226 a/a	3083 a/a	3370 a/a	3225 a/a	2772 a/a	3229 a/a	2099 a/a	2988 a/a	3265 a/a	2991 a/a	3597 a/a	3208 a/a	Average a/a ([2]; pH 4.5, 0 min): 0 a/a; HPLC a/a ([2]; pH 4.5, 0 min, replicate 1): 0 a/a; HPLC a/a ([2]; pH 4.5, 0 min, replicate 2): 0 a/a; Average a/a ([2]; pH 4.5, 15 min): 1185 a/a; HPLC a/a ([2]; pH 4.5, 15 min, replicate 1): 1294 a/a; HPLC a/a ([2]; pH 4.5, 15 min, replicate 2): 1077 a/a; Average a/a ([2]; pH 4.5, 45 min): 924 a/a; HPLC a/a ([2]; pH 4.5, 45 min, replicate 1): 907 a/a; HPLC a/a ([2]; pH 4.5, 45 min, replicate 2): 941 a/a; Average a/a ([2]; pH 4.5, 90 min): 1095 a/a; HPLC a/a ([2]; pH 4.5, 90 min, replicate 1): 1279 a/a; HPLC a/a ([2]; pH 4.5, 90 min, replicate 2): 912 a/a; Average a/a ([2]; pH 4.5, 180 min): 1052 a/a; HPLC a/a ([2]; pH 4.5, 180 min, replicate 1): 1008 a/a; HPLC a/a ([2]; pH 4.5, 180 min, replicate 2): 1096 a/a; water uptake / moisture sorption ([3]; DVS, 25° C., listed as batch 722): 6 % weight; moisture sorption ([3]; DVS, 25° C., between 0% and 65% RH): 2 % weight; hygroscopicity, comparison of batches 722 and 723 ([3]; DVS): identical; water absorption at high humidity ([3]; humidity higher than 65% RH (FIG. 9)): absorbs relevant amounts of water
